{
  "source": "patent US20190091272A1",
  "about": "“ANTI-CANCER DRUG COMPOSITION INCLUDING GANODERMA EXTRACT AND AMPHOTERICIN B” (Taiwan Indigena Botanica Co., Ltd., priority 2015, published 2019)",
  "test_system": "human liver carcinoma cell lines including Hep G2, Hep 3G and Hep 5J",
  "assay": "Summary of Examples 1 and 2 over the three liver carcinoma cell lines",
  "format": "cell-based",
  "protocol": "This example used human liver carcinoma cell lines including Hep G2, Hep 3G and Hep 5J for experiments, and the cells were cultured in 96-well plates. The experiments were divided into two groups including a pre-treatment group and a co-treatment group. The cells in the pre-treatment group were pre-treated with the Ganoderma ethanolic extracts for 24 hours and then treated with the amphotericin B for 48 hours, while the cells in the co-treatment group were co-treated with the Ganoderma ethanolic extracts and the amphotericin B together for 48 hours.\nIn the pre-treatment group, the cells were pre-treated with the Ganoderma ethanolic extracts at concentrations of 0, 1, 2.5 and 5 mg/ml for 24 hours, and then treated with the amphotericin B at concentrations between 0-80 μM for 48 hours, followed by MTT assay. In the co-treatment group, the cells were co-treated with the Ganoderma ethanolic extracts at concentrations of 0, 1, 2.5 and 5 mg/ml and the amphotericin B at concentrations between 0-80 μM for 48 hours, followed by MTT assay. The MTT solution (3-(4,5-Dimethylthiazol-2-yl)-2,5-diphenyltetrazolium bromide) was added to each well, and the plates were further incubated for 45-60 minutes. The cell culture medium was then removed and replaced by DMSO (dimethyl sulfoxide). Subsequently, the optical density (OD) was measured at 550 nm. […]",
  "data": [
    {"compound": "C[C@@H]1[C@H](O)[C@@H](C)/C=C/C=C/C=C/C=C/C=C/C=C/C=C/[C@H](O[C@@H]2O[C@H](C)[C@@H](O)[C@H](N)[C@@H]2O)C[C@@H]2O[C@](O)(C[C@@H](O)C[C@@H](O)[C@H](O)CC[C@@H](O)C[C@@H](O)CC(=O)O[C@H]1C)C[C@H](O)[C@H]2C(=O)O", "note": "[amphotericin B]", "values": [
      {"measurement": "effective dose of the amphotericin B", "setting": "after pre-treatment with the Ganoderma ethanolic extract, from the examples", "result": "at least 3 μM"},
      {"measurement": "safe and effective dose of the amphotericin B", "setting": "based on the results from Examples 1 and 2", "result": "3 to 10", "unit": "µM"}
    ]}
  ]
}
